From PMC9154810, “Selective inhibition of carbonic anhydrase IX by sulphonylated 1,2,3-triazole incorporated benzenesulphonamides capable of inducing apoptosis” (Journal of Enzyme Inhibition and Medicinal Chemistry, 2022) come the findings set out here.

SMILES strings stand for the structures. pKi: −log10 of the molar value.

The target in data set [1] is hCA II (Homo sapiens, UniProt P00918). Nature of the data set: stopped-flow CO2 hydrase assay, hCA II.
Source text: (§1) An Sx.18Mv-R Applied Photophysics (Oxford, UK) stopped-flow instrument was used to assay the catalytic activity of various CA isozymes for CO2 hydration reaction.[21]
Data set [2] has as its target hCA IX (Homo sapiens, UniProt Q16790). Briefly: stopped-flow CO2 hydrase assay, hCA IX. The conditions noted are these: for Selectivity index I/IX: ratio KI hCA I / KI hCA IX; for Selectivity index II/IX: ratio KI hCA II / KI hCA IX.
Source text: as §1
Data set [3] addresses hCA I (Homo sapiens, UniProt P00915). Briefly: stopped-flow CO2 hydrase assay, hCA I. The conditions noted are these: mean from three assays, stopped-flow technique, errors ± 5–10%.
Source text: as §1
The target in data set [4] is hCA IV (Homo sapiens, UniProt P22748). Briefly: stopped-flow CO2 hydrase assay, hCA IV.
hCA IV, sequence (P22748 19-312): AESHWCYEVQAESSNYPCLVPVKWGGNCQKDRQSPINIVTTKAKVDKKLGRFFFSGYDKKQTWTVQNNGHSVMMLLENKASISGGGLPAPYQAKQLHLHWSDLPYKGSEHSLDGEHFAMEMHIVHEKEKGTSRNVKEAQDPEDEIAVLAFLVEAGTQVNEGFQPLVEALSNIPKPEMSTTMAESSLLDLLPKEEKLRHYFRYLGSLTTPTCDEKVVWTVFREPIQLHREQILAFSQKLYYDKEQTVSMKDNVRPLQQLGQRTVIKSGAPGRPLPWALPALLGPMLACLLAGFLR
Source text: as §1

hCA I, sequence (P00915 whole entry): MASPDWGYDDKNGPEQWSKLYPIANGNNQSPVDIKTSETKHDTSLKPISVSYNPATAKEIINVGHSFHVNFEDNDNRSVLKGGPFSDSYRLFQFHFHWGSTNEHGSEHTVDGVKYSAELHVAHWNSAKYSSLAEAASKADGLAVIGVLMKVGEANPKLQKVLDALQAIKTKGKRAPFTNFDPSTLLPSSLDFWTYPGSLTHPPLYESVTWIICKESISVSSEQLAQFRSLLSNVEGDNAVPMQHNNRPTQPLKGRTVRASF

Broadly, the melting point is the temperature of the solid-liquid transition. One may read the pKi as the Ki on a negative log10 scale, so that one unit is a factor of ten. A high value points to a low Ki. `NS(=O)(=O)c1ccc(-n2nnc(S(=O)(=O)c3ccccc3)c2-c2ccc(Cl)cc2)cc1` [Compound 9d, 4-(5-(4-chlorophenyl)-4-(phenylsulphonyl)-1H-1,2,3-triazol-1-yl)benzenesulphonamide]: the melting point was in the range of 213 to 215 °C. Further, the pKi in data set [1] is 7.25. In data set [2], the pKi is 7.60, the “selectivity for hCA IX over hCA I” value was “more than 100 fold”, the “Selectivity index I/IX” value was 184.42 and the “Selectivity index II/IX” value is reported as 2.26. This molecule had a pKi in data set [3] of 5.33. For the same molecule, the negative-log Ki (pKi) in data set [4] was 6.28.
The molecule `NS(=O)(=O)c1ccc(-n2nnc(S(=O)(=O)c3ccccc3)c2-c2ccc(Br)cc2)cc1` [Compound 9e, 4-(5-(4-bromophenyl)-4-(phenylsulphonyl)-1H-1,2,3-triazol-1-yl)benzenesulphonamide] showed a melting point of 198 to 200 °C. The molecule also showed a pKi in data set [1] of 6.66. Besides, in data set [2], the negative-log Ki (pKi) is 7.52, the “selectivity for hCA IX over hCA I” value was “more than 100 fold”, the “Selectivity index I/IX” value stood at 260.40 and the “Selectivity index II/IX” value came out at 7.32. In data set [3], the pKi is 5.11. In addition, the pKi in data set [4] was 6.10.
In the case of `NS(=O)(=O)c1ccc(-n2nnc(S(=O)(=O)c3ccccc3)c2-c2cccc(Br)c2)cc1` [Compound 9f, 4-(5-(3-bromophenyl)-4-(phenylsulphonyl)-1H-1,2,3-triazol-1-yl)benzenesulphonamide], the melting point was in the range of 282 to 284 °C. For the same molecule, the pKi in data set [1] is 8.04. Further, in data set [2], the pKi is 7.57, the “Selectivity index I/IX” value is reported as 16.00 and the “Selectivity index II/IX” value is listed as 0.34. Besides, the pKi in data set [3] is 6.36. Besides, the pKi in data set [4] was 7.02.
With `COc1ccc(-c2c(S(=O)(=O)c3ccccc3)nnn2-c2ccc(S(N)(=O)=O)cc2)cc1` [Compound 9g, 4-(5-(4-methoxyphenyl)-4-(phenylsulphonyl)-1H-1,2,3-triazol-1-yl)benzenesulphonamide], the melting point is 235 to 237 °C. This molecule also gave a pKi in data set [1] of 8.21. In addition, in data set [2], the pKi is 7.60, the “selectivity for hCA IX over hCA I” value is listed as “more than 100 fold”, the “Selectivity index I/IX” value came to 314.73 and the “Selectivity index II/IX” value was 0.25. Besides, the pKi in data set [3] was 5.11. Moreover, the pKi in data set [4] is 6.31.
On to `COc1ccc(-c2c(S(=O)(=O)c3ccccc3)nnn2-c2ccc(S(N)(=O)=O)cc2)cc1Br` [Compound 9h, 4-(5-(3-bromo-4-methoxyphenyl)-4-(phenylsulphonyl)-1H-1,2,3-triazol-1-yl)benzenesulphonamide], for which the melting point was in the range of 210 to 212 °C. In data set [1], this molecule gave a pKi of 7.42. Moreover, in data set [2], the pKi is 7.54, the “selectivity for hCA IX over hCA I” value was “more than 100 fold”, the “Selectivity index I/IX” value was 324.62 and the “Selectivity index II/IX” value is listed as 1.30. This molecule also had a pKi in data set [3] of 5.03. For the same molecule, the pKi in data set [4] is 5.92.
`NS(=O)(=O)c1ccc(-n2nnc(S(=O)(=O)c3ccccc3)c2-c2ccc(-c3ccccc3)cc2)cc1` [Compound 9k, 4-(5-([1,1′-biphenyl]-4-yl)-4-(phenylsulphonyl)-1H-1,2,3-triazol-1-yl)benzenesulphonamide] yielded a melting point of 214 to 216 °C. For the same molecule, the pKi in data set [1] was 6.08. In addition, in data set [2], the negative logarithm of the Ki (pKi) is 7.61, the “selectivity for hCA IX over hCA I” value was “more than 100 fold”, the “selectivity for hCA IX over hCA II” value is “more than 30 fold” and the “Selectivity index I/IX” value is 142.86. Further, in data set [2], the “Selectivity index II/IX” value turned out to be 33.60. In addition, the pKi in data set [3] was 5.45. The pKi in data set [4] was 6.38.
`NS(=O)(=O)c1cccc(-n2nnc(S(=O)(=O)c3ccccc3)c2-c2ccccc2)c1` [Compound 10a, 3-(5-phenyl-4-(phenylsulphonyl)-1H-1,2,3-triazol-1-yl)benzenesulphonamide] showed a melting point of 172 to 174 °C. The pKi in data set [1] is 6.79. In data set [2], the pKi was 7.59, the “Selectivity index I/IX” value was determined as 23.35 and the “Selectivity index II/IX” value is 6.20. In data set [3], the pKi is 6.22. The molecule also gave a pKi in data set [4] of 7.10.
Consider `Cc1ccc(-c2c(S(=O)(=O)c3ccccc3)nnn2-c2cccc(S(N)(=O)=O)c2)cc1` [Compound 10b, 3-(4-(phenylsulphonyl)-5-(p-tolyl)-1H-1,2,3-triazol-1-yl)benzenesulphonamide], for which the melting point was 186 to 188 °C. The negative-log Ki (pKi) in data set [1] is 7.66. Besides, in data set [2], the pKi was 7.67, the “Selectivity index I/IX” value came out at 26.71 and the “Selectivity index II/IX” value is 1.03. This molecule gave a pKi in data set [3] of 6.25. In data set [4], this molecule showed a pKi of 6.46.
Regarding `NS(=O)(=O)c1cccc(-n2nnc(S(=O)(=O)c3ccccc3)c2-c2ccc(Br)cc2)c1` [Compound 10e, 3-(5-(4-bromophenyl)-4-(phenylsulphonyl)-1H-1,2,3-triazol-1-yl)benzenesulphonamide], the melting point was in the range of 96 to 98 °C. The same molecule gave a pKi in data set [1] of 6.86. In addition, in data set [2], the pKi is 7.60, the “Selectivity index I/IX” value stood at 25.33 and the “Selectivity index II/IX” value came out at 5.50. For the same molecule, the pKi in data set [3] is 6.20. This molecule showed a pKi in data set [4] of 7.10.
Molecule `NS(=O)(=O)c1cccc(-n2nnc(S(=O)(=O)c3ccccc3)c2-c2cccc(Br)c2)c1` [Compound 10f, 3-(5-(3-bromophenyl)-4-(phenylsulphonyl)-1H-1,2,3-triazol-1-yl)benzenesulphonamide] displayed a melting point of 97 to 99 °C. In data set [1], this molecule had a pKi of 6.43. In data set [2], the negative logarithm of the Ki (pKi) was 7.54, the “Selectivity index I/IX” value was determined as 24.10 and the “Selectivity index II/IX” value was 12.93. This molecule showed a negative-log Ki (pKi) in data set [3] of 6.16. In addition, in data set [4], the pKi was 7.07.
Turning to `NS(=O)(=O)c1cccc(-n2nnc(S(=O)(=O)c3ccccc3)c2-c2ccc(-c3ccccc3)cc2)c1` [Compound 10k, 3-(5-([1,1′-biphenyl]-4-yl)-4-(phenylsulphonyl)-1H-1,2,3-triazol-1-yl)benzenesulphonamide], the melting point is 74 to 76 °C. This molecule also gave a pKi in data set [1] of 6.68. Moreover, in data set [2], the pKi is 7.65, the “Selectivity index I/IX” value was determined as 91.02 and the “Selectivity index II/IX” value is reported as 9.33. Also, the pKi in data set [3] is 5.69. The same molecule gave a pKi in data set [4] of 6.07.
